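A five-concentration, 48-hour dose response in 96-well plates underlies each endpoint, interpolated linearly between surrounding concentrations. GI50 = concentration required for 50% inhibition of growth. TGI is the concentration that stops growth completely.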

Experimental findings from PubChem BioAssay (NCI) are described below.

What all share (test): NCI-60 cell line screen, 48 h
For assay [1], the system named is RPMI-8226 leukemia.
The test system of assay [2] is TK-10 renal.
The subject of assay [3] is SK-MEL-5 melanoma.
The subject of assay [4] is EKVX NSCLC.
Assay [5] has as its system HS 578T breast.
Assay [6] concerns SF-268 CNS.
Assay [7] concerns SF-539 CNS.
For assay [8], the system named is MDA-MB-231 breast.
The subject of assay [9] is HCT-15 colon.
In assay [10] the test system is BT-549 breast.

Take `COc1ccc(/C(C)=C(\c2ccc(Cl)cc2)c2ccc(OCCN3CCCC3)cc2)cc1F`: the GI50 was 3.57 µM in [1]; 3.58 µM in assay [2]; 4.1 µM in assay [3]; 3.73 µM in assay [4]; 3.77 µM in [5]; 4.26 µM in assay [6]. Moreover, the GI50 was 2.74 µM in [7], 3.56 µM in [8], 0.848 µM in assay [9] and 3.24 µM in [10]. For the same compound, the TGI in assay [1] came out at 9.23 µM; in assay [2] it was 8.13 µM; in assay [3], 7.78 µM; in assay [4], 7.27 µM; in assay [5], 9.55 µM; in [6], 8.76 µM. Further, the TGI in assay [7] amounted to 5.75 µM; in assay [8] it was 6.97 µM; in [9], 3.38 µM; in [10] it was 6.74 µM.

Consider `COc1cc(C#N)cc(OC)c1OCCOCCOc1c(OC)cc(C#N)cc1OC`, for which the GI50 was 29.9 µM in assay [1]; more than 100 µM in assay [2]; 69.8 µM in [3]; more than 100 µM in assay [4]; more than 100 µM in [5]; more than 100 µM in [6]. Moreover, the GI50 was more than 100 µM in [7], 88.9 µM in assay [8], more than 100 µM in assay [9] and 25.3 µM in assay [10]. For the same compound, the TGI in assay [1], in assay [2], in assay [3], in assay [4], in assay [5] and in assay [6] was more than 100 µM each time. Further, the TGI is more than 100 µM in assay [7], more than 100 µM in assay [8], more than 100 µM in assay [9] and 73.2 µM in [10].

For the compound `O=C(Nc1n[nH]c2nc(-c3ccco3)ccc12)C1CC1`, the GI50 in [1], in assay [2], in assay [3], in assay [4], in assay [5] and in assay [6] was more than 25 µM each time. For the same compound, the GI50 in assay [7], in assay [8], in assay [9] and in assay [10] was more than 25 µM each time. Also, the TGI in assay [1], in assay [2], in assay [3], in assay [4], in [5] and in [6] was more than 25 µM each time. The TGI in assay [7], in assay [8], in assay [9] and in assay [10] was more than 25 µM throughout.

Turning to `O=c1cc(-c2ccc(Cl)cc2)[nH]c2ncccc12`, the TGI in [1] was 95 µM; in assay [2] it was more than 100 µM; in assay [3], more than 100 µM; in assay [4], more than 100 µM; in assay [5] it was more than 100 µM; in [6], more than 100 µM. Also, the TGI in assay [7], in [8], in assay [9] and in assay [10] was more than 100 µM in each case. Also, in [3], the GI50 is 29 µM.

Turning to `S=c1nc2[nH]ncc2c(N/N=C/c2ccccc2)[nH]1`, the GI50 was 60.6 µM in [1]; more than 100 µM in [2]; 41.3 µM in [3]; more than 100 µM in assay [4]; more than 100 µM in assay [5]; more than 100 µM in assay [6]. Also, the GI50 was more than 100 µM in assay [7], 19.8 µM in [8], 81.3 µM in assay [9] and more than 100 µM in assay [10]. For the same compound, the TGI in [1], in assay [2], in [3], in assay [4], in [5] and in assay [6] was more than 100 µM throughout. Also, the TGI was more than 100 µM in [7], 71.4 µM in [8], more than 100 µM in [9] and more than 100 µM in assay [10].
